Test results as given in patent publication US20230087560A1, “HYDROFLUORETHERS AND METHODS OF USING SAME” (3M INNOVATIVE PROPERTIES COMPANY, priority 2020, published 2023).

Assays:
[1] = Chemical stability in the presence of DABCO; assay type: physicochemical; details: 50° C.
Method: (§1) Chemical Stability: Stability of compounds in the presence of the bases triethylamine (TEA), 1,4-diazabicyclo[2.2.2]octane (DABCO), and N,N,N,N-tetramethylethylene diamine (TMEDA) was tested as follows. To a 20 mL vial equipped with a magnetic stir bar were added the exemplary and comparative materials in the following starting amounts: Example 1-0.30 g (1.0 mmol), CE4-0.30 g (1.0 mmol) and CE5-0.30 g (1.0 mmol). FC-770 (0.40 g, 1.0 mmol) was added as an internal standard since it is known to be stable in the presence of the base materials tested herein. To this mixture was added one of: triethylamine (0.10 g, 1.0 mmol), DABCO (0.10 g, 0.89 mmol), or TMEDA (0.12 g, 1.0 mmol). The resultant mixture was stirred at 50° C. for 24 hours. GC-FID analysis was performed at specific time intervals to monitor the remaining hydrofluoroether and comparative materials present in the mixture.

[2] = Chemical stability in the presence of TMEDA; assay type: physicochemical; details: 50° C.
Method: as §1

[3] = Chemical stability in the presence of triethylamine (TEA); assay type: physicochemical; details: 50° C.
Method: as §1

rats = experiment: Toxicity screening study in rats, 4-hour inhalation; assay type: in vivo
Method: To a 3-neck flask equipped with a magnetic stir bar and reflux condenser were charged 1,1,1,3,3,4,4,4-octafluoro-2-(trifluoromethyl)butan-2-olate cesium salt (300 g of a 33 wt % solution in diglyme, 237 mmol). The resultant reaction mixture was heated to 70° C. followed by the dropwise addition of iodomethane (17 mL, 273 mmol). The reaction mixture was allowed to stir overnight at the same temperature. After cooling to room temperature, H2O (400 mL) was added and the mixture was transferred to a 2 L separatory funnel. The bottom, fluorochemical layer was then separated and analyzed by GC-FID indicating a 58% yield of the title compound. Distillation afforded the desired 1,1,1,2,2,4,4,4-octafluoro-3-methoxy-3-(trifluoromethyl)butane (77° C., 740 mm/Hg, 32.1 g, 45% isolated yield) as a colorless liquid. The identity of the purified composition was confirmed by GC-MS analysis.

[4] = Chemical stability in the presence of NMP, fluoride ion content; assay type: physicochemical; details: 50° C., 144 h, aqueous layer
Method: Stability of compounds in the presence of N-methylpyrrolidinone (NMP) was tested as follows. To a 20 mL glass vial equipped with a magnetic stir bar was added 0.66 g of NMP (6.7 mmol) and one of the following exemplary or comparative materials in the following starting amounts: Example 1-2.0 g (6.7 mmol); CE4-2.0 g (6.7 mmol); CE5-2.0 g (6.7 mmol), or CE6-2.40 g (6.7 mmol). This mixture was then stirred at 50° C. for 144 h. To the resultant mixture was added H2O (6.0 mL) and the aqueous layer was evaluated for fluoride ion content. The samples were analyzed using an Orion EA 940 meter with an Orion 9609BNWB Fluoride-ISE. Orion Ionplus Fluoride standards were used to calibrate the meter.

[5] = Specific heat capacity (Cp) by DSC; assay type: physicochemical
Method: Specific heat capacity (Cp): Cp was measured using a TA Instruments Model Q2000 DSC (Differential Scanning Calorimeter) instrument. A sapphire standard was run before and after the samples and the average of the measured sapphire heat capacity vs. the theoretical heat capacity was used to correct the measured heat capacity of the sample.

[6] = Pour point, determined visually; assay type: physicochemical
Method: One to two milliliters of the sample were placed in a vial and cooled in a bath until it solidified. The sample was then allowed to warm slowly in the bath and observed every 3-5° C.

[7] = Kinematic viscosity, Schott-Ubbelohde viscometers; assay type: physicochemical
Method: Kinematic viscosity: Kinematic viscosity was measured using Schott-Ubbelohde Viscometers (glass capillary viscometers). The viscometers were timed using a viscometer timer available under the trade designation AVS-350 from SI Analytics, College Station, Tex., USA. The viscometer measurement stand and glass viscometer were immersed in a temperature-controlled liquid bath filled with NOVEC 7500 fluid available from 3M Company, Maplewood, Minn., USA. The temperature-controlled liquid bath (available from Lawler Manufacturing Corporation, Edison, N.J., USA), was fitted with a copper tubing coil for liquid nitrogen cooling with fine temperature control provided by the bath's electronic temperature control heater. The fluid was mechanically stirred to provide uniform […] temperature in the bath. The bath controlled the temperature within +0.1° C., measured by a built-in RTD temperature sensor. The sample liquid was added to the viscometer between the two fill lines etched on the viscometer. The viscometer timer automatically pumped the sample fluid above the upper timing mark, then released the fluid and measured the efflux times between the upper and lower timing marks. The fluid meniscus was detected by optical sensors as it passed each timing mark. The sample was drawn up and measured repeatedly; results are provided as averages of multiple determinations. The glass viscometers were calibrated using certified kinematic viscosity standard fluids available from Cannon Instrument Company, State College, Pa., USA, to obtain a calibration constant (cSt/sec) for each viscometer. Kinematic viscosity in centiStokes (cSt) was calculated as the average efflux time (sec) times the viscometer calibration constant (cSt/sec).

Row | SMILES | Mole % of Starting Material ([1]; 0 hr) | Mole % of Starting Material ([1]; 16 hr) | Mole % of Starting Material ([1]; 24 hr) | Mole % of Starting Material ([2]; 0 hr) | Mole % of Starting Material ([2]; 16 hr) | Mole % of Starting Material ([2]; 24 hr) | Mole % of Starting Material ([3]; 0 hr) | Mole % of Starting Material ([3]; 16 hr) | Mole % of Starting Material ([3]; 24 hr) | 4-hour inhalation LC50 (rats) | Fluoride ion content [4] | Specific Heat Capacity [5] | pour point [6] | Kinematic Viscosity ([7]; 0.0 ° C.) | Kinematic Viscosity ([7]; −10.0 ° C.) | Kinematic Viscosity ([7]; −20.0 ° C.) | Kinematic Viscosity ([7]; −30.0 ° C.) | Kinematic Viscosity ([7]; −40.0 ° C.)
1 | COC(C(F)(F)F)(C(F)(F)F)C(F)(F)C(F)(F)F [Example 1, 1,1,1,2,2,4,4,4-octafluoro-3-methoxy-3-(trifluoromethyl)butane] | 100 Mole % | 100 Mole % | 100 Mole % | 100 Mole % | 100 Mole % | 100 Mole % | 100 Mole % | 100 Mole % | 100 Mole % | > 1,840 ppm | 15.1 ppm | – | – | – | – | – | – | –
2 | COC(F)(F)C(F)(C(F)(F)F)C(F)(F)C(F)(F)F (centres unmarked) [CE5, 2-(difluoro(methoxy)methyl)-1,1,1,2,3,3,4,4,4-nonafluorobutane] | 100 Mole % | 46.7 Mole % | 43.3 Mole % | 100 Mole % | 36.7 Mole % | 36.7 Mole % | 100 Mole % | 100 Mole % | 86.7 Mole % | – | 657.8 ppm | – | – | – | – | – | – | –
3 | COC(F)(C(F)(F)F)C(F)(C(F)(F)F)C(F)(F)F (centres unmarked) [CE4, 1,1,1,2,3,4,4,4-octafluoro-2-methoxy-3-(trifluoromethyl)butane] | 100 Mole % | 66.7 Mole % | 56.7 Mole % | 100 Mole % | 53.3 Mole % | 53.3 Mole % | 100 Mole % | 100 Mole % | 96.7 Mole % | – | 388.8 ppm | – | – | – | – | – | – | –
4 | COC(C(F)(F)C(F)(F)F)(C(F)(F)C(F)(F)F)C(F)(F)C(F)(F)F [Example 3, 1,1,1,2,2,4,4,5,5,5-decafluoro-3-methoxy-3-(1,1,2,2,2-pentafluoroethyl)pentane] | – | – | – | – | – | – | – | – | – | – | – | 1.16 J/g · K | −62 °C | 0.97 cSt | 1.65 cSt | 2.15 cSt | 2.88 cSt | 5.19 cSt
